Test results published in patent US20110237659A1, “CHROMENONE DERIVATIVES AS TRPV3 ANTAGONISTS” (GLENMARK PHARMACEUTICALS S.A., priority 2008, published 2011).

Molecular target: T1, Human TRPV3 (Homo sapiens, UniProt Q8NET8)
T1 construct: expressed in transfected cells; host or cells: CHO cells
T1 sequence (Q8NET8 1-790): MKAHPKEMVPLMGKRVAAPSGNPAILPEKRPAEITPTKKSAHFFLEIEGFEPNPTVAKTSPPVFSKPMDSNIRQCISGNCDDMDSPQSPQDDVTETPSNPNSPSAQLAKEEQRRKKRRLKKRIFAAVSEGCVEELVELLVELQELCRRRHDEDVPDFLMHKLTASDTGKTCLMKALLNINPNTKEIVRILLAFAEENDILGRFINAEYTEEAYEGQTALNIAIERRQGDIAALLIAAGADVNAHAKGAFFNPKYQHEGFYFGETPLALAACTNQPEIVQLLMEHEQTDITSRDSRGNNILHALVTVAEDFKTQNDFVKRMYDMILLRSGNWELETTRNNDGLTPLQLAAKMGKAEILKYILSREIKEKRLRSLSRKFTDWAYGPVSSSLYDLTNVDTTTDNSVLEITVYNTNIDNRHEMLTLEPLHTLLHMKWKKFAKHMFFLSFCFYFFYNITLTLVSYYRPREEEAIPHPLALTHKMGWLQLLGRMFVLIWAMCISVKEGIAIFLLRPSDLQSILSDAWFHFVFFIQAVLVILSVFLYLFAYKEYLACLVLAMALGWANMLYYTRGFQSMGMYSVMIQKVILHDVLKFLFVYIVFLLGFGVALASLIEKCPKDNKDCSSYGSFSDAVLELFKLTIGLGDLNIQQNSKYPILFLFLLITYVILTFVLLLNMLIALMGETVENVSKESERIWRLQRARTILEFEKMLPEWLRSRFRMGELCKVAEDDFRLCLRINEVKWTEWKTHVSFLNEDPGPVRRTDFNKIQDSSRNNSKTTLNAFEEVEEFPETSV
Test: 45Calcium uptake assay: inhibition of 2-APB induced cellular uptake of radioactive calcium in human TRPV3 expressing CHO cells
Type: cell-based
Details: 2-APB 500 μM; for inhibition at 1 µM: 1.0 μM test compound, read-out: Percentage inhibition at 1.0 μM; for inhibition at 10 µM: 10.0 μM test compound, read-out: Percentage inhibition at 10.0 μM
Excerpt: The illustrative examples of the present invention are screened for TRPV3 activity according to a modified procedure described in (a) Tóth, A. et al. Life Sciences 2003, 73, 487-498. (b) McNamara C, R. et al. Proc. Natl. Acad. Sci. U.S.A., 2007, 104, 13525-13530. The screening of the compounds can be carried out by other methods and procedures known to persons skilled in the art.
Screening for TRPV3 Antagonist Using the ^45Calcium Uptake Assay
The inhibition of TRPV3 receptor activation was followed as inhibition of 2-aminoethxydiphenylborate (2-APB) induced cellular uptake of radioactive calcium. Test compounds were dissolved in dimethyl sulfoxide (DMSO) to prepare 20 mM stock solution and then diluted using plain medium with DMEM/F-12 containing 1.8 mM CaCl2 to get desired concentration. Final concentration of DMSO in the reaction was 0.5% (v/v). Human TRPV3 expressing CHO cells were grown in DMEM/F-12 medium with 10% FBS, 1% penicillin-streptomycin solution, 400 μg/mL of G-418. Cells were seeded 24 h prior to the assay in 96 well plates so as to get ˜50,000 cells per well on the day of experiment. Cells were treated with test compounds for 10 minutes followed by addition of 2-APB at a final concentration of 500 μM and 5 μCi/mL ^45Ca^+2 for 4 minutes. Cells were washed and lysed using buffer containing 1% Triton X-100, 0.1% deoxycholate and 0.1% SDS. Radioactivity in the lysate was measured in Packardt Top count after addition of liquid scintillant. Concentration response curves were plotted as a % of maximal response obtained in the absence of test antagonist. IC50 value was calculated from concentration response curve by nonlinear regression analysis using GraphPad PRISM software.
Percentage inhibition at concentrations of 1.0 μM and 10.0 μM are given in the table along with IC50 (nM) values for selected examples.

inhibition at 1 µM [%] | inhibition at 10 µM [%] | IC50 [nM] | Structure (SMILES)
82.2 | 91.2 | < 50 | COc1cccc(/C=C/c2oc3cc(F)ccc3c(=O)c2-c2ccc(C#N)cc2)c1OCC(C)(C)C [Example 12, 4-{7-Fluoro-2-[(E)-2-(3-methoxy-2-neopentyloxyphenyl)-1-ethenyl]-4-oxo-4H-3-chromenyl}benzonitrile]
78.2 | 89.8 | 150 to 1000 | COc1cccc(/C=C/c2oc3ccc(F)cc3c(=O)c2-c2ccc(C#N)cc2)c1OCC1CCC1 [Example 17, 4-{2-[(E)-2-(2-Cyclobutylmethoxy-3-methoxyphenyl)-1-ethenyl]-6-fluoro-4-oxo-4H-3-chromenyl}benzonitrile]
90.4 | 94.5 | 150 to 1000 | COc1cccc(/C=C/c2oc3ccccc3c(=O)c2-c2ccc(C#N)cc2)c1OCC1CC1 [Example 3, 4-{2-[(E)-2-(2-Cyclopropylmethoxy-3-methoxyphenyl)-1-ethenyl]-4-oxo-4H-3-chromenyl}benzonitrile]
55.2 | 71.7 |  | COc1cccc(/C=C/c2oc3ccc(F)cc3c(=O)c2-c2ccc(C#N)cc2)c1OCCC(C)C [Example 18, 4-{6-Fluoro-2-[(E)-2-(2-isopentyloxy-3-methoxyphenyl)-1-ethenyl]-4-oxo-4H-3-chromenyl}benzonitrile]
63.1 | 75.4 | 150 to 1000 | COc1cccc(/C=C/c2oc3ccccc3c(=O)c2-c2ccc(C(F)(F)F)cc2)c1OCC1CC1 [Example 2, 2-[(E)-2-(2-Cyclopropylmethoxy-3-methoxyphenyl)-1-ethenyl]-3-(4-trifluoromethyl-phenyl)-4H-4-chromenone]
84.6 | 92.6 | 50 to 150 | COc1cccc(/C=C/c2oc3cc(F)ccc3c(=O)c2-c2ccc(C#N)cc2)c1OC1CCCC1 [Example 11, 4-{2-[(E)-2-(2-Cyclopentyloxy-3-methoxyphenyl)-1-ethenyl]-7-fluoro-4-oxo-4H-3-chromenyl}benzonitrile]
92.9 | 94.8 | 150 to 1000 | N#Cc1ccc(-c2c(/C=C/c3cccc(OC(F)F)c3OCC3CC3)oc3ccccc3c2=O)cc1 [Example 4, 4-(2-{(E)-2-[2-(Cyclopropylomethoxy)-3-(difluoromethoxy)phenyl]vinyl}-4-oxo-4H-3-chromenyl}benzonitrile]
79.3 | 94.1 | 150 to 1000 | COc1cccc(/C=C/c2oc3ccc(F)cc3c(=O)c2-c2ccc(C#N)cc2)c1OCC1CC1 [Example 15, 4-{2-[(E)-2-(2-Cyclopropylmethoxy-3-methoxyphenyl)-1-ethenyl]-6-fluoro-4-oxo-4H-3-chromenyl}benzonitrile]
75.8 | 86.7 | < 50 | COc1cccc(/C=C/c2oc3cc(F)c(F)cc3c(=O)c2-c2ccc(C#N)cc2)c1OC1CCCC1 [Example 23, 4-{2-[(E)-2-[2-Cyclopentyloxy-3-methoxyphenyl)-1-ethenyl]-6,7-difluoro-4-oxo-4H-3-chromenyl}benzonitrile]
32.1 | 83.9 |  | COc1cccc(/C=C/c2oc3ccccc3c(=O)c2-c2ccc(C#N)cc2)c1O [Example 6, 4-{2-[(E)-2-(2-Hydroxy-3-methoxyphenyl)-1-ethenyl]-4-oxo-4H-3-chromenyl}-benzonitrile]
89.8 | 93.2 | 50 to 150 | COc1cccc(/C=C/c2oc3ccccc3c(=O)c2-c2ccc(C#N)cc2)c1OCC(C)(C)C [Example 7, 4-{2-[(E)-2-[2-(2,2-Dimethylpropoxy)-3-methoxyphenyl]-1-ethenyl]-4-oxo-4H-3-chromenyl}benzonitrile]
71.8 | 90.3 | 150 to 1000 | COc1cccc(/C=C/c2oc3ccccc3c(=O)c2-c2ccc(C#N)cc2)c1OC1CCCC1 [Example 5, 4-{2-[(E)-2-(2-Cyclopentyloxy-3-methoxyphenyl)-1-ethenyl]-4-oxo-4H-3-chromenyl}benzonitrile]
94.5 | 98 | 50 to 150 | COc1cccc(/C=C/c2oc3ccccc3c(=O)c2-c2ccc(C#N)cc2)c1OCCC(F)(F)F [Example 9, 4-(2-{(E)-2-[3-Methoxy-2-(3,3,3-trifluoropropoxy)phenyl]-1-ethenyl}-4-oxo-4H-3-chromenyl}benzonitrile]
87.3 | 95.6 | 150 to 1000 | COc1cccc(/C=C/c2oc3cc(F)ccc3c(=O)c2-c2ccc(C#N)cc2)c1OCC1CC1 [Example 10, 4-{2-[(E)-2-(2-Cyclopropylmethoxy-3-methoxyphenyl)-1-ethenyl]-7-fluoro-4-oxo-4H-3-chromenyl}benzonitrile]
40 | 73 |  | COc1cccc(/C=C/c2oc3c(F)cc(F)cc3c(=O)c2-c2ccc(C#N)cc2)c1OCC1CC1 [Example 22, 4-{2-[(E)-2-(2-Cyclopropylmethoxy-3-methoxyphenyl)-1-ethenyl]-6,8-difluoro-4-oxo-4H-3-chromenyl}benzonitrile]
76.4 | 87.7 | 150 to 1000 | COc1cccc(/C=C/c2oc3ccc(Cl)cc3c(=O)c2-c2ccc(C#N)cc2)c1OCC1CC1 [Example 21, 4-{6-Chloro-2-[(E)-2-(2-cyclopropylmethoxy-3-methoxyphenyl)-1-ethenyl]-4-oxo-4H-3-chromenyl}benzonitrile]
36.7 | 62.2 |  | COc1cccc(/C=C/c2oc3ccccc3c(=O)c2-c2ccc(OC(F)(F)F)cc2)c1OCC1CC1 [Example 1, 2-[(E)-2-(2-Cyclopropylmethoxy-3-methoxyphenyl)-1-ethenyl]-3-(4-trifluoromethoxy-phenyl)-4H-4-chromenone]
74.3 | 78.5 | < 50 | COc1cccc(/C=C/c2oc3ccc(F)cc3c(=O)c2-c2ccc(C#N)cc2)c1OCC(C)(C)C [Example 20]
59.4 | 74.4 |  | COc1cccc(/C=C/c2oc3ccc(F)cc3c(=O)c2-c2ccc(C#N)cc2)c1OC1CCCC1 [Example 16, 4-{2-[(E)-2-(2-Cyclopentyloxy-3-methoxyphenyl)-1-ethenyl]-6-fluoro-4-oxo-4H-3-chromenyl}benzonitrile]
96 | 98.7 | 150 to 1000 | COc1cccc(/C=C/c2oc3cc(F)ccc3c(=O)c2-c2ccc(C#N)cc2)c1OCCC(F)(F)F [Example 14, 4-(7-Fluoro-2-{(E)-2-[3-methoxy-2-(3,3,3-trifluoropropoxy)phenyl]-1-ethenyl}-4-oxo-4H-3-chromenyl)benzonitrile]

Structure (SMILES) | inhibition at 1 µM [%] | inhibition at 10 µM [%] | IC50 [nM]
COc1cccc(/C=C/c2oc3ccccc3c(=O)c2-c2ccc(C#N)cc2)c1OCC(C)C [Example 8, 4-{2-[(E)-2-[2-Isobutoxy-3-methoxyphenyl)-1-ethenyl]-4-oxo-4H-3-chromenyl}benzonitrile] | 89.3 | 96.4 | 50 to 150
COc1cccc(/C=C/c2oc3ccc(F)cc3c(=O)c2-c2ccc(C#N)cc2)c1OCC(C)C [Example 19, 4-{6-Fluoro-2-[(E)-2-(2-isobutoxy-3-methoxyphenyl)-1-ethenyl]-4-oxo-4H-3-chromenyl}benzonitrile] | 70.2 | 87.8 | < 50
